Experimental data from ChEMBL document CHEMBL3877312, “Synthesis, anticholinesterase activity and molecular modeling study of novel carbamate-substituted thymol/carvacrol derivatives” (Bioorg Med Chem, 2017).

How the values were obtained:
[1] = biological target: Cholinesterase (Equus caballus, UniProt P81908); assay: Inhibition of horse serum BuChE using butyrylthiocholine iodide as substrate preincubated for 15 mins followed by substrate addition by Ellman's method
[2] = biological target: Acetylcholinesterase (Electrophorus electricus, UniProt O42275); assay: Inhibition of electric eel AChE using acetylthiocholine iodide as substrate preincubated for 15 mins followed by substrate addition by Ellman's method
[3] = Cytotoxicity against rat H4IIE cells assessed as cell viability at 2.5 uM after 24 hrs by MTT assay relative to control; type: toxicity; conditions: read-out: Activity
[4] = Cytotoxicity against rat H4IIE cells assessed as cell viability at 0.6 uM after 24 hrs by MTT assay relative to control; type: toxicity; conditions: read-out: Activity
[5] = Cytotoxicity against rat H4IIE cells assessed as cell viability at 10 uM after 24 hrs by MTT assay relative to control; type: toxicity; conditions: read-out: Activity
[6] = Cytotoxicity against rat H4IIE cells assessed as cell viability at 0.15 uM after 24 hrs by MTT assay relative to control; type: toxicity; conditions: read-out: Activity
[7] = Cytotoxicity against rat H4IIE cells assessed as cell viability at 5 uM after 24 hrs by MTT assay relative to control; type: toxicity; conditions: read-out: Activity
[8] = Cytotoxicity against rat H4IIE cells assessed as cell viability at 0.07 uM after 24 hrs by MTT assay relative to control; type: toxicity; conditions: read-out: Activity
[9] = Cytotoxicity against rat H4IIE cells assessed as cell viability at 1.25 uM after 24 hrs by MTT assay relative to control; type: toxicity; conditions: read-out: Activity
[10] = Cytotoxicity against rat H4IIE cells assessed as cell viability at 0.3 uM after 24 hrs by MTT assay relative to control; type: toxicity; conditions: read-out: Activity

Chain of Acetylcholinesterase (O42275 whole entry): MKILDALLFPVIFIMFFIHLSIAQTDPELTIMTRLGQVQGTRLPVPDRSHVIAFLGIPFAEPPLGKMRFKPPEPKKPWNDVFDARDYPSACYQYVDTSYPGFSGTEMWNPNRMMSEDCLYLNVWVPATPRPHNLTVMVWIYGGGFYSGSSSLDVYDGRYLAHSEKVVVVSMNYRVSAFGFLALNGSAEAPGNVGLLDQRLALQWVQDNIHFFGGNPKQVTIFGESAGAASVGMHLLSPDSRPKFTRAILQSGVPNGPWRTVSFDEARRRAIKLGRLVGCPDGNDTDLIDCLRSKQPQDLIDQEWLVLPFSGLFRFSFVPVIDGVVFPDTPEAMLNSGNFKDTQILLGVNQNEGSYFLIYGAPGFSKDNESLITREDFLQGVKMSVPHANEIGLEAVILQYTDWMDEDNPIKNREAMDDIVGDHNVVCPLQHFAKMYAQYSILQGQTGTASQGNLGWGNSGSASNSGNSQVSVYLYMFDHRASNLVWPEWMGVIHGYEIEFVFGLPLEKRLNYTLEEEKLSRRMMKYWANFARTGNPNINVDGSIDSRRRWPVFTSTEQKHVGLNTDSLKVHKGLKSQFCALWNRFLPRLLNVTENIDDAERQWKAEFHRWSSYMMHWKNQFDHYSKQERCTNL
Chain of Cholinesterase (P81908 whole entry): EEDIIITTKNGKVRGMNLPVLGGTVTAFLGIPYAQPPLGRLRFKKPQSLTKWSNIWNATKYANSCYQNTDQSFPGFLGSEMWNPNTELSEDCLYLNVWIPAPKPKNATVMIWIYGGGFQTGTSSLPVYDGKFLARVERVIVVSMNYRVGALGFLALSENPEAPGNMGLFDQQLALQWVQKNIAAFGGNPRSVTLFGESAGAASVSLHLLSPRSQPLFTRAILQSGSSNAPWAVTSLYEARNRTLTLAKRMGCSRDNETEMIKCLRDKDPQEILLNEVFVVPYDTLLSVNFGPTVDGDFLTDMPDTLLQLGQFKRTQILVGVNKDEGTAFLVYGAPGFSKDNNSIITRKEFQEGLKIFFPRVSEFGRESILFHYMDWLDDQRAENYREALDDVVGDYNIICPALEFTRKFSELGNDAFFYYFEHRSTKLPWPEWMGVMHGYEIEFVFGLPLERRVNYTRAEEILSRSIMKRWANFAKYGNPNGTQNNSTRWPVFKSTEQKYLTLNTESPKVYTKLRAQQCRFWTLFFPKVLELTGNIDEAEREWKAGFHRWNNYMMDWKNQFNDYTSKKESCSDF

Row | Structure (SMILES) | IC50 [1] [µM] | IC50 [2] [µM] | further results
1 | COc1ccc(NC(=O)Oc2cc(C)ccc2C(C)C)cc1 | 60 |  | 
2 | Cc1ccc(NC(=O)Oc2cc(C(C)C)ccc2C)cc1 | 0.31 | 6.17 | 
3 | Cc1ccc(C(C)C)cc1OC(=O)Nc1ccc(Cl)cc1 | 0.13 | 148 | 
4 | Cc1ccc(C(C)C)c(OC(=O)Nc2ccc([N+](=O)[O-])cc2)c1 | 37.7 | 2.5 | viability at 24 h, 2.5 µM [3]: 40%; viability at 24 h, 0.6 µM [4]: 51.7%; viability at 24 h, 10 µM [5]: 26.1%; viability at 24 h, 0.15 µM [6]: 57.8%; viability at 24 h, 5 µM [7]: 32.8%; viability at 24 h, 0.07 µM [8]: 97.8%; viability at 24 h, 1.25 µM [9]: 47.2%; viability at 24 h, 0.3 µM [10]: 54.4%
5 | Cc1ccc(C(C)C)cc1OC(=O)NCc1ccccc1 | 0.07 | 77.8 | 
6 | Cc1ccc(C(C)C)cc1OC(=O)Nc1ccccc1 | 0.55 | 4.01 | viability at 24 h, 2.5 µM [3]: 43.3%; viability at 24 h, 0.6 µM [4]: 82.5%; viability at 24 h, 10 µM [5]: 26%; viability at 24 h, 0.15 µM [6]: 87.9%; viability at 24 h, 5 µM [7]: 25.8%; viability at 24 h, 0.07 µM [8]: 93.8%; viability at 24 h, 1.25 µM [9]: 60%; viability at 24 h, 0.3 µM [10]: 90%
7 | COc1cccc(NC(=O)Oc2cc(C(C)C)ccc2C)c1 | 1.64 | 2.24 | 
8 | Cc1ccc(C(C)C)c(OC(=O)Nc2ccc(Cl)c(Cl)c2)c1 | 2.54 | 89.5 | 
9 | Cc1ccc(C(C)C)c(OC(=O)Nc2cccc([N+](=O)[O-])c2)c1 | 3.31 | 82.9 | 
10 | Cc1ccc(C(C)C)cc1OC(=O)Nc1ccc(Cl)c(Cl)c1 | 0.41 | 86.2 | 
11 | Cc1ccc(C(C)C)c(OC(=O)Nc2ccc(Br)cc2)c1 | 107 | 98.6 | 
12 | Cc1ccc(C(C)C)cc1OC(=O)NCC1CCCCC1 | 0.3 | 8.08 | 
13 | Cc1ccc(C(C)C)cc1OC(=O)Nc1cccc(F)c1 | 1.02 | 2.22 | viability at 24 h, 2.5 µM [3]: 45.8%; viability at 24 h, 0.6 µM [4]: 64.4%; viability at 24 h, 10 µM [5]: 28.5%; viability at 24 h, 0.15 µM [6]: 90%; viability at 24 h, 5 µM [7]: 37.2%; viability at 24 h, 0.07 µM [8]: 98.1%; viability at 24 h, 1.25 µM [9]: 47.8%; viability at 24 h, 0.3 µM [10]: 74.1%
14 | COc1ccc(NC(=O)Oc2cc(C(C)C)ccc2C)cc1 | 0.52 | 54.5 | 
15 | Cc1ccc(C(C)C)c(OC(=O)NC2CCCC2)c1 | 167 | 420 | 
16 | Cc1ccc(C(C)C)cc1OC(=O)Nc1cccc2ccccc12 | 0.51 | 127 | 
17 | Cc1ccc(C(C)C)cc1OC(=O)NC1CCCCCC1 | 112 | 126 | 
18 | Cc1ccc(C(C)C)c(OC(=O)Nc2ccc(F)cc2)c1 | 405 | 270 | 
19 | Cc1ccc(C(C)C)cc1OC(=O)NC1CCCCC1 | 1.03 | 23 | 

Row | Structure (SMILES) | IC50 [1] [µM] | IC50 [2] [µM] | further results
20 | Cc1ccc(C(C)C)cc1OC(=O)Nc1ccc([N+](=O)[O-])cc1 | 1.05 | 121 | 
21 | COc1cccc(NC(=O)Oc2cc(C)ccc2C(C)C)c1 | 1.65 | 154 | 
22 | Cc1ccc(C(C)C)cc1OC(=O)Nc1ccc(Br)cc1 | 0.15 | 104 | 
23 | Cc1ccc(NC(=O)Oc2cc(C)ccc2C(C)C)cc1 | 9.4 | 229 | 
24 | Cc1ccc(C(C)C)cc1OC(=O)Nc1ccc(C(F)(F)F)cc1 | 1.23 | 85.7 | 
25 | Cc1ccc(C(C)C)c(OC(=O)Nc2ccc(C(F)(F)F)cc2)c1 | 148 | 98.5 | 
26 | Cc1ccc(C(C)C)c(OC(=O)Nc2cccc(F)c2)c1 | 3.85 | 88.5 | 
27 | Cc1ccc(C(C)C)cc1OC(=O)NC1CCCC1 | 1.01 | 3.37 | viability at 24 h, 2.5 µM [3]: 47.8%; viability at 24 h, 0.6 µM [4]: 63.3%; viability at 24 h, 10 µM [5]: 37.4%; viability at 24 h, 0.15 µM [6]: 75.6%; viability at 24 h, 5 µM [7]: 38.9%; viability at 24 h, 0.07 µM [8]: 94.4%; viability at 24 h, 1.25 µM [9]: 50.4%; viability at 24 h, 0.3 µM [10]: 71.1%
28 | Cc1ccc(C(C)C)c(OC(=O)NCC2CCCCC2)c1 | 36.8 |  | 
29 | Cc1ccc(C(C)C)cc1OC(=O)Nc1cccc([N+](=O)[O-])c1 | 0.56 | 5.05 | 
30 | Cc1ccc(C(C)C)c(OC(=O)Nc2ccc(Cl)cc2)c1 | 137 | 229 | 
31 | Cc1ccc(C(C)C)c(OC(=O)Nc2ccccc2)c1 | 5.02 | 198 | 
32 | Cc1ccc(C(C)C)cc1OC(=O)Nc1ccc(F)cc1 | 0.02 | 3.02 | viability at 24 h, 2.5 µM [3]: 41.6%; viability at 24 h, 0.6 µM [4]: 65.9%; viability at 24 h, 10 µM [5]: 28.5%; viability at 24 h, 0.15 µM [6]: 69.4%; viability at 24 h, 5 µM [7]: 32.8%; viability at 24 h, 0.07 µM [8]: 92.8%; viability at 24 h, 1.25 µM [9]: 62.2%; viability at 24 h, 0.3 µM [10]: 68.9%
33 | Cc1ccc(C(C)C)c(OC(=O)NCc2ccccc2)c1 | 1.45 | 111 | 
34 | Cc1ccc(C(C)C)cc1OC(=O)Nc1ccc(I)cc1 | 0.21 | 138 | 
35 | Cc1ccc(C(C)C)c(OC(=O)Nc2ccc(I)cc2)c1 | 4.77 | 31.6 | 
36 | Cc1ccc(C(C)C)c(OC(=O)Nc2cccc3ccccc23)c1 | 96.1 | 157 | 
37 | Cc1ccc(C(C)C)cc1O [CARVACROL] | 411 | 288 | 
38 | Cc1ccc(C(C)C)c(O)c1 [THYMOL] | 226 | 458 | 
